Measurements from patent US10080804B2, “Conjugate with target-finding ligand and use thereof” (ethris GmbH, priority 2009, dated 2018).

What was measured:
human IP1 receptor = target: T1, human IP1 receptor (Homo sapiens, UniProt P43119); assay: Inhibition of FLUO-BSA-ILO receptor binding/uptake with CAY10449 on 16HBE14o-cells (FACS); format: cell-based; conditions: 25 nM conjugate, increasing CAY10449 (15, 30, 150 μM) or excess of unconjugated ILO
T1 construct: The expression of IP1 receptor in human alveolar (A549) and bronchial (BEAS-2B, 16HBE14o-) epithelial cells was confirmed by Western blot analysis; endogenous in cells; host or cells: 16HBE14o- human bronchial epithelial cells
Experimental: 24-well plates were prepared as described above. CAY10449 was diluted in MEM to concentrations of 15 μM, 30 μM and 150 μM, and the mixtures were incubated at 37° C. for 15 min. […] The binding/uptake was measured using FACS.

[1] = physiological environment, i.e. in the blood; cited from earlier work
H441 cells = assay: FACS receptor binding/uptake of fluorescein-BSA conjugates; format: cell-based, human; conditions: 0.5 μM conjugate, 4 h, 37° C.
Experimental: (§1) For the FACS measurement experiments, 100 000 cells/well were seeded in 24-well plates (TPP, Trasadingen, Switzerland) 24 hours before adding the conjugates. […] After the cells had been washed with PBS, the cells were removed from the wells by treatment with trypsin, and the FACS measurements were carried out using a Beckton-Dickinson FACS scan (San Jose, USA). For the confocal laser scanning microscopy, the experiments were carried out on slides with 4 chambers from BD Falcon Culture (BD Biosciences San Jose, USA) with 25 000 cells per chamber. The incubation of FLUO-BSA-ILO and FLUO-BSA was performed as described above. The cells were washed and fixed in 4% paraformaldehyde, and the nuclei were subsequently stained with 0.33 μM DAPI (4′,6-diamidino-2-phenylindole) and F-actin with Alexafluor® 568 Falloidin (Invitrogen GmbH, Karlsruhe, Germany) using standard protocols. The slides were covered with medium (Vectashield, Vector Laboratories Inc., Berlingame, USA), and images were taken with a confocal laser scanning microscope (Leica, Solms, Germany).

A549 cells = assay: as above; format: cell-based, human; conditions: 0.5 μM conjugate, 4 h, 37° C.
Experimental: as §1

16HBE14o-cells [2] = assay: as above; format: cell-based, human; conditions: 0.5 μM conjugate, 4 h, 37° C.
Experimental: as §1

BEAS-2B cells = assay: as above; format: cell-based, human; conditions: 0.5 μM conjugate, 4 h, 37° C.
Experimental: as §1

16HBE14o-cells [3] = assay: Confocal laser scanning microscopy of surface binding and intracellular uptake; format: cell-based, human; conditions: 0.5 μM conjugate
Experimental: as §1

T1 sequence (P43119 whole entry): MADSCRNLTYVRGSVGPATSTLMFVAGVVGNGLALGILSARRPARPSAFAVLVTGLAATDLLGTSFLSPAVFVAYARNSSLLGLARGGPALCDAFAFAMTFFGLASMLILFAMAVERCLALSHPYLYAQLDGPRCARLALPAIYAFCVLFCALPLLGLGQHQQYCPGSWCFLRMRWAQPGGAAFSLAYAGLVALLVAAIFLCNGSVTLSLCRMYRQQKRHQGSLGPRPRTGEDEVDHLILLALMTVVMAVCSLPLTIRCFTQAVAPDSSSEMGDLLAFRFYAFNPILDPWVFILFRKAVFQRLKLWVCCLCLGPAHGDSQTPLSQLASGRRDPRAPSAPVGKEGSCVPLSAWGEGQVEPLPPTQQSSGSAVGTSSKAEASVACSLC

| Compound | effect of competitor on number of fluorescence-positive cells and MFI (human IP1 receptor) | half-life [1] | positive cells (H441) (H441 cells) | positive A549 cells (A549 cells) | positive 16HBE14o-cells (16HBE14o-cells [2]) | positive cells (BEAS-2B) (BEAS-2B cells) | cell surface binding and intracellular uptake (confocal microscopy) (16HBE14o-cells [3]) |
| --- | --- | --- | --- | --- | --- | --- | --- |
| CC(C)Oc1ccc(Cc2ccc(NC3=NCCN3)cc2)cc1 [CAY10449] | significant dose-dependent reduction |  |  |  |  |  |  |
| CCCCC[C@H](O)/C=C/[C@@H]1[C@H]2C/C(=C/CCCC(=O)O)O[C@H]2C[C@H]1O [prostacyclin] |  | only a few minutes |  |  |  |  |  |
| FLUO-BSA: fluorescein-labeled bovine serum albumin, control without ligand | no activity |  | 9.1±1.9% | unspecific background binding | unspecific background binding | 13.7±1.2% | no uptake |
